Assay results published in article PMC10017685 (Nature Communications, 2023).
Values after ≈ are worked out from the molar mass of the structure shown. Read-outs that look alike come from different tables or passages of the source. Peptide text beside a SMILES is read from it.

Experiments:
[1] = test system: E. coli ATCC 43827; assay type: cell-based, Escherichia coli
Method: Verification of antimicrobial activity of the synthesized analogs was conducted on reference strains of E. coli ATCC 25922 and ATCC 43827 in the first phase of the experimental validation, and S. aureus ATCC 33591, E. coli ATCC 25922, E. coli ATCC 43827, A. baumannii ATCC BAA 1605, P. aeruginosa ATCC 9027 in the second phase.
All the strains were stored at -80 °C in Roti®-Store cryo vials (Carl Roth GmbH, Germany) and before the tests were transferred into fresh Mueller-Hinton Medium (BioMaxima, Poland) and incubated for 24 h at 37 °C. Fresh cultures were used in antimicrobial assay. The MIC values were evaluated by the broth microdilution method according to Clinical and Laboratory Standards Institute Protocol[86]. […] The experiments were conducted on 96-well microtiter plates, with a final volume of 100 μL. Inoculums densities were adjusted spectrophotometrically (Multiskan™ GO Microplate Spectrophotometer, Thermo Scientific) at the wavelength of 600 nm. The MICs were taken as the lowest drug concentration at which a visible growth of microorganisms was inhibited[87]. Moreover MBC was evaluated. After MIC examination the samples from MIC well and two higher concentrations were seeded on the agar plates. Section with no visible growth of bacterial colonies was reported as the MBC for each strain and compound. All experiments were conducted in triplicate. […]

[2] = test system: E. coli ATCC 25922; assay type: cell-based, Escherichia coli
Method: Fresh cultures were used in antimicrobial assay. […] Moreover MBC was evaluated. […] All experiments were conducted in triplicate.

[3] = test system: erythrocytes; settings: cited from earlier work
Excerpt: Supplement 41467_2023_36994_MOESM6_ESM.xlsx, sheet "MD calibration" | column: Hemolytic activity (HC50); Comment

[4] = test system: E. coli ATCC 25922; settings: ref https://dbaasp.org/peptide-card?id=8199; cited from earlier work
[5] = test system: S. aureus ATCC 29212; settings: ref https://dbaasp.org/peptide-card?id=8199; cited from earlier work
Excerpt: page 7: Reviewer #2 (Remarks to the Author): The authors present a new method, HydrAMP, for antimicrobial peptide generation. The generative model of HydrAMP is a decoder, which produces a distribution over peptides in order to mimic the synthesis of the antimicrobial peptides in biological experiments. HydrAMP is the first model trained and used to identify active analogs of non-AMP prototypes. During training, they introduce an additional encoder to provide a variational approximation to help optimize the decoder. Their method is based on the conditional VAE model, which provides the foundat ...

[6] = experimentally confirmed activity, strain not given; ref Supplementary Data 3; cited from earlier work
Excerpt: 21 (1 picture or pasted object on this page, not shown here)

[7] = test system: E. coli ATCC 25922; parameters: method as in DBAASP; settings: origin dbaasp_ecoli; ref DBAASP; cited from earlier work
[8] = Supplementary Data 5F, analogue generation without additional preselection
[9] = first experimental round, broth microdilution (CLSI), Mueller-Hinton Broth, 0.5 × 10^5 CFU/mL, 1-[…], 18 h at 37 °C, triplicate

CC[C@H](C)[C@H](NC(=O)CNC(=O)[C@H](CO)NC(=O)[C@H](CC(C)C)NC(=O)[C@@H](NC(=O)[C@H](CCCNC(=N)N)NC(=O)CNC(=O)[C@@H](NC(=O)[C@H](CC(C)C)NC(=O)[C@@H]1CCCN1C(=O)[C@H](CC(C)C)NC(=O)[C@@H](N)Cc1ccccc1)[C@@H](C)CC)C(C)C)C(=O)N[C@@H](C)C(N)=O [Temp-P1-3] (H-FLPLIGRVLSGIA-NH2)
E. coli ATCC 43827 MIC [1, 8]: 512 µg/mL | MIC E. coli ATCC 43927 [1, 9]: 512 µg/mL (≈ 378 µM) | E. coli ATCC 25922 MIC [2, 8]: 512 µg/mL | MIC E. coli ATCC 25922 [2, 9]: 512 µg/mL (≈ 378 µM)

FFHHIFRGIVHVGKTIHRLVTG [Piscidin 1]
Comment: toxicity [3]: Active broad spetrum, toxic

FFSLIPSLVGGLISAFK [Stigmurin]
MIC E. coli ATCC 25922 [4]: > 139 µM | MIC S. aureus ATCC 29212 [5]: 8.68 µM

FLRFIGSVIHGIGHLVHHIGVAL [Clavaspirin]
MIC (moderately active AMP of MD validation set) [6]: 64 µg/mL

GLLSLSLGKLL
Class (activity against E. coli ATCC 25922 in dedicated activity dataset) [7]: 1 (positive (active) examples are peptides selected from DBAASP with experimentally verified MIC≤ 101.5≃ 32 against E. coli ATCC 25922)

KDRPKKPGLCPLIWWLIIKVG
Class (activity against E. coli ATCC 25922 in dedicated activity dataset) [7]: 1 (positive (active) examples are peptides selected from DBAASP with experimentally verified MIC≤ 101.5≃ 32 against E. coli ATCC 25922)

KWCFRVCARGICYRRCR
Class (activity against E. coli ATCC 25922 in dedicated activity dataset) [7]: 1 (positive (active) examples are peptides selected from DBAASP with experimentally verified MIC≤ 101.5≃ 32 against E. coli ATCC 25922)

LKKLLKLLKPLLKL
Class (activity against E. coli ATCC 25922 in dedicated activity dataset) [7]: 1 (positive (active) examples are peptides selected from DBAASP with experimentally verified MIC≤ 101.5≃ 32 against E. coli ATCC 25922)
